Tests used:
[1] = test system: Echinochloa crus-galli; assay: Test Example 1-2: foliar spray, controlling effect on Echinochloa crus-galli; type: in vivo; parameters: key: 0 represents “no effect”; 10 represents “complete death”; a state of the plant therebetween is classified into 1 to 9; details: treatment amount 1,000 g/ha; sprayed at second- to third-leaf stage; visually evaluated after 20 days
Experimental: A plastic cup with a diameter of 8 cm and a depth of 6.5 cm was filled with soil. Seeds of Echinochloa crus-galli were sowed in the cup, and then the plant was grown until the second- to third-leaf stage. Then, a determined amount of a test solution containing the compound of the present invention was sprayed onto the whole plant uniformly. The test solution was prepared by dissolving a predetermined amount of the compound of the present invention in a 2% solution of Tween 20 (polyoxyethylene sorbitan fatty acid ester, MP Biomedicals, Inc.) in dimethylformamide and then diluting the solution with water. After the spray treatment, the plant was grown in a greenhouse. After 20 days, a controlling effect of the compound on Echinochloa crus-galli was visually evaluated. The effect was classified into 11 levels, from 0 to 10 (0 represents “no effect”; 10 represents “complete death”; and a state of the plant therebetween is classified into 1 to 9).
(§1) Compound D was similarly tested as a comparative example.

[2] = test system: Lolium multiflorum; assay: Test Example 1-1: foliar spray, controlling effect on Lolium multiflorum; type: in vivo; parameters: key: 0 represents “no effect”; 10 represents “complete death”; a state of the plant therebetween is classified into 1 to 9; details: treatment amount 250 g/ha; sprayed at first to second leaf stage; visually evaluated after 20 days
Experimental: A plastic cup with a diameter of 8 cm and a depth of 6.5 cm was filled with soil. Seeds of Lolium multiflorum were sowed in the cup, and then the plant was grown until the first to second leaf stage. Then, a determined amount of a test solution containing the compound of the present invention was sprayed onto the whole plant uniformly. The test solution was prepared by dissolving a predetermined amount of the compound of the present invention in a 2% solution of Tween 20 (polyoxyethylene sorbitan fatty acid ester, MP Biomedicals, Inc.) in dimethylformamide and then, diluting the solution with water. After the spray treatment, the plant was grown in a greenhouse. After 20 days, a controlling effect of the compound on Lolium multiflorum was visually evaluated. The effect was classified into 11 levels, from 0 to 10 (0 represents “no effect”; 10 represents “complete death”; and a state of the plant therebetween is classified into 1 to 9).
Compound D as shown below was similarly tested as a comparative example.

[3] = test system: Galium aparine; assay: Test Example 1-3: foliar spray, controlling effect on Galium aparine; type: in vivo; parameters: key: 0 represents “no effect”; 10 represents “complete death”; a state of the plant therebetween is classified into 1 to 9; details: treatment amount 250 g/ha; sprayed at second- to third-leaf stage; visually evaluated after 20 days
Experimental: A plastic cup with a diameter of 8 cm and a depth of 6.5 cm was filled with soil. Seeds of Galium aparine were sowed in the cup, and then the plant was grown until the second- to third-leaf stage. Then, a determined amount of a test solution containing the compound of the present invention was sprayed onto the whole plant uniformly. The test solution was prepared by dissolving a predetermined amount of the compound of the present invention in a 2% solution of Tween 20 (polyoxyethylene sorbitan fatty acid ester, MP Biomedicals, Inc.) in dimethylformamide and then diluting the solution with water. After the spray treatment, the plant was grown in a greenhouse. After 20 days, a controlling effect of the compound on Galium aparine was visually evaluated. The effect was classified into 11 levels, from 0 to 10 (0 represents “no effect”; 10 represents “complete death”; and a state of the plant therebetween is classified into 1 to 9).
as §1

[4] = test system: Spodoptera litura; assay: Test Example 2-2: artificial diet test on fourth-instar larvae of Spodoptera litura; type: in vivo; details: 500 ppm test solution, 1 mL on artificial diet; 25° C., 6 days
Experimental: (§2) The formulation of the compound of the present invention obtained in Formulation Example 3 was diluted with water so that the concentration of the active ingredient became 500 ppm to prepare a test solution. An artificial diet, Insecta LF (Nihon Nosan Kogyo Corp.) was sliced into 2 mm in thickness and then placed on the bottom of a polyethylene cup. Then, 1 mL of the test solution was poured into the polyethylene cup. After air dried, 5 fourth-instar larvae of Spodoptera litura were released into the polyethylene cup, and the cup was sealed with a lid. After the polyethylene cup was kept at 25° C. for 6 days, the number of surviving insects was counted. A death rate was calculated by the following equation, and the effect of the tested compound was evaluated with the following insecticidal indexes. Death rate (%)={1−(Number of surviving insects/Number of tested insects)}×100 Insecticidal indexes 4: death rate of 100%, 3: death rate of 80-99%, 2: death rate of 60-79%, 1: death rate of 30-59%, 0: death rate of 0-29%

[5] = test system: Culex pipiens pallens; assay: Test Example 2-3: last-instar larvae of Culex pipiens pallens released into dilution; type: in vivo; details: active ingredient concentration 3.5 ppm in water; after 8 days
Experimental: The formulation of the compound of the present invention obtained in Reference Example 3 was diluted with water so that the concentration of the active ingredient became 500 ppm to prepare a test solution. 0.7 mL of the test solution was diluted with ion-exchanged water so that the active ingredient concentration became 3.5 ppm. Into the dilution, 20 last-instar larvae of Culex pipiens pallens were released. After 8 days, the number of dead insects was counted. A death rate was calculated by the following equation, and the effect of the tested compound was evaluated with following insecticidal indexes of 4: death rate of 91-100%, 2: death rate of 11-90%, and 0: death rate of 0-10%. Death rate (%)=(Number of dead insects/Number of tested insects)×100

[6] = test system: Adoxophyes orana; assay: Test Example 2-1: artificial diet test on first-instar larvae of Adoxophyes orana; type: in vivo; details: 500 ppm test solution, 1 mL on artificial diet; 25° C., 7 days
Experimental: The formulation of the compound of the present invention obtained in Formulation Example 3 was diluted with water so that the concentration of the active ingredient became 500 ppm to prepare a test solution.
as §2, with “An” for “The formulation of the compound of the present invention obtained in Formulation Example 3 was diluted with water so that the concentration of the active ingredient became 500 ppm to prepare a test solution. An”, “diet, Silkmate 2S” for “diet, Insecta LF”, “dried, 30 first-instar” for “dried, 5 fourth-instar”, “of Adoxophyes orana” for “of Spodoptera litura”, “for 7” for “for 6”

[7] = test system: Frankliniella occidentalis; assay: Test Example 2-8: sprayed cucumber leaf, larvae of Frankliniella occidentalis; type: in vivo; details: 500 ppm, 10 mL/cup sprayed on cucumber seedling; 25° C., 7 days
Experimental: The formulation of the compound of the present invention obtained in Reference Example 3 was diluted with water so that the concentration of the active ingredient became 500 ppm to prepare a test solution. On a cucumber seedling at the second true leaf stage planted in a polyethylene cup, 10 mL/cup of the test solution was sprayed. After the test solution was dried, the first true […] cut off and then placed in a polyethylene cup. Into the polyethylene cup, 20 larvae of Frankliniella occidentalis were released, and the cup was sealed with a lid. After the cup was kept at 25° C. for 7 days, the number of the insects surviving on the cucumber leaves was counted, and a controlling value was determined by the following equation. Controlling value (%)={1-(Cb×Tai)/(Cai×Tb)}×100 wherein Cb: the number of insects in a non-treated section before treatment, Cai: the number of insects in a non-treated section on observation, Tb: the number of insects in a treated-section before treatment, Tai: the number of insects in a treated section on observation.

[8] = test system: Aphis gossypii; assay: Test Example 2-6: cucumber seedling spray, imagoes of Aphis gossypii; type: in vivo; details: 500 ppm, 10 mL sprayed on cucumber seedling one day after release; counted five days after spraying
Experimental: The formulation of the compound of the present invention obtained in Reference Example 3 was diluted with water so that the concentration of the active ingredient became 500 ppm to prepare a test solution. On a cucumber seedling at the second true leaf stage placed in a polyethylene cup, about 30 imagoes of Aphis gossypii were released. One day after the release of aphids, 10 mL of the test solution was sprayed on the plant. Five days after the spraying treatment, the number of the insects parasitizing the leaves of the plant was counted, and a controlling value was determined by the following equation. Controlling value (%)={1−(Cb×Tai)/(Cai×Tb)}×100 wherein Cb: the number of insects in a non-treated section before treatment, Cai: the number of insects in a non-treated section on observation, Tb: the number of insects in a treated-section before treatment, Tai: the number of insects in a treated section on observation.

[9] = test system: Bemisia tabaci; assay: Test Example 2-7: tomato seedling spray, larvae of Bemisia tabaci; type: in vivo; details: 500 ppm, 10 ml/cup sprayed on tomato seedling; 25° C., 7 days
Experimental: The formulation of the compound of the present invention obtained in Reference Example 4 was diluted with water so that the concentration of the active ingredient became 500 ppm to prepare a test solution. On a tomato seedling at the third true leaf stage placed in a polyethylene cup, imagoes of Bemisia tabaci were released and allowed to lay eggs for about 24 hours. The plant was placed in a greenhouse for 8 days. When larvae of Bemisia tabaci hatched from the eggs, 10 ml/cup of the test solution was sprayed. After the plant was kept at 25° C. for 7 days, the number of the larvae surviving on the tomato leaves was counted, and a controlling value was determined by the following equation. Controlling value (%)={1−(Cb×Tai)/(Cai×Tb)}×100 wherein Cb: the number of insects in a non-treated section before treatment, Cai: the number of insects in a non-treated section on observation, Tb: the number of insects in a treated-section before treatment, Tai: the number of insects in a treated section on observation.

Structure (SMILES): CCc1cc(C)cc(CC)c1-c1c(OC)c(C)nn(C)c1=O [Compound D]
- controlling effect on Echinochloa crus-galli (11 levels, 0 to 10) [1]: 0
- controlling effect on Lolium multiflorum (11 levels, 0 to 10) [2]: 0
- controlling effect on Galium aparine (11 levels, 0 to 10) [3]: 0

Structure (SMILES): COCOc1c(C)nn(C)c(=O)c1-c1cc(-c2ccc(Cl)cc2)ccc1C [I-1-6]
- insecticidal index (death rate) [4]: 3 (death rate of 80-99%)
- insecticidal index (death rate) [5]: 4 (death rate of 91-100%)
- insecticidal index (death rate) [6]: 4 (death rate of 100%)
- controlling value [7]: ≥ 90%
- controlling value [8]: ≥ 90%
- controlling value [9]: ≥ 90%

Structure (SMILES): CCc1cc(CC)c(-c2c(OCS(C)(=O)=O)c(C)nn(C)c2=O)c(CC)c1 [I-4-1, 2,6-dimethyl-5-methylsulfonylmethoxy-4-(2,4,6-triethylphenyl)-3(2H)-pyridazinone]
- melting point: 142 to 143 °C
